# Source: patent US8648059B2, “Use of epicatechin and derivatives and salts thereof for cardiac protection of ischemic myocardium and to ameliorate adverse cardiac remodeling” (The Regents of the University of California, priority 2008, dated 2014)
# Assays:
# Format in all cases: in vivo, rat
# [1] = system: Sprague-Dawley rats; test: Cardiac morphometry 3 weeks after IR (Example 1); settings: epicatechin
# Procedure: Adult male Sprague-Dawley rats (Harlan, Indianapolis, Ind.) weighing ˜250 g were used. […] Sigma-Aldrich, St. Louis, Mo.) or vehicle (water) was administered orally by gavage once/day beginning 10 days before thoracotomy and continuing until the time of the terminal study (48 h or 3 weeks). A subgroup of “normal” animals were treated with water or epicatechin for 10 day and were used to evaluate the effects of epicatechin on hemodynamics. […] Determination of Infarct Size: Terminal study hearts were excised and weighed. In 48 h hearts, the area at risk was determined by the reocclusion of the snare and infusion of trypan blue (0.4%) into the cannulated aorta. […] Computer assisted image analysis was used using blinded operators. For 3 week studies hearts were processed as above and sectioned to identify the infarct (i.e. scar) area. The images of unfixed, stained rings were also used to measure internal and external chamber diameters, anterior and septal wall thicknesses.
# [2] = system: Sprague-Dawley rats; test: Hemodynamics in normal, sham and IR rats (Example 1)
# Procedure: (§1) Adult male Sprague-Dawley rats (Harlan, Indianapolis, Ind.) weighing ˜250 g were used. Epicatechin (1 mg/kg/day; Sigma-Aldrich, St. Louis, Mo.) or vehicle (water) was administered orally by gavage once/day beginning 10 days before thoracotomy and continuing until the time of the terminal study (48 h or 3 weeks). A subgroup of “normal” animals were treated with water or epicatechin for 10 day and were used to evaluate the effects of epicatechin on hemodynamics. For 48 hr studies the groups included IR and IR+10 day epicatechin. For 3 week studies, the groups included sham, sham+10 day epicatechin, IR and IR+10 day epicatechin.
# (§2) Hemodynamics: All animals were weighed and anesthetized with 5% isoflurane (maintenance at 1-2%). Arterial (carotid) and LV pressures were measured using a micromanometer just prior to sacrifice and data digitally recorded.
# Hemodynamics: Hemodynamics (Table 1A) were measured in normal and normal+10 d epicatechin. […] Values shown are mean ±SEM. Statistical analysis was done by ANOVA except where denoted. In the IR group the rats are fed the control and ischemia is induced (by temporary occlusion of the coronary artery). In the IR+epicatechin the rats are given epicatechin and ischemia is induced. […] The purpose of these two groups was to determine baseline hemodynamics.
# [3] = system: Sprague-Dawley rats; test: Ischemia-reperfusion (45 min coronary ligation) infarct size, oral epicatechin pre-treatment (Example 1); settings: for infarct area: epicatechin 1 mg/kg/day oral
# Procedure: as §1
# Ischemia-reperfusion: Animals were anesthetized by intraperitoneal injection of ketamine (100 mg/kg) and xylazine (10 mg/kg), intubated, and positive-pressure ventilated. Following a left thoracotomy, the left anterior descending coronary artery was ligated for 45 min, (except in shams) released and the suture left in place. The chest was closed and animals allowed to fully recover. Successful occlusion and reperfusion were verified by visual inspection of left ventricle (LV) color. Sham animals were treated identically, except the ligature was not tightened.
# Determination of Infarct Size: Terminal study hearts were excised and weighed. In 48 h hearts, the area at risk was determined by the reocclusion of the snare and infusion of trypan blue (0.4%) into the cannulated aorta. Hearts were sectioned at 0 mmHg into five 2 mm rings and stained using triphenyltetrazolium chloride to determine the infarct area. Computer assisted image analysis was used using blinded operators. For 3 week studies hearts were processed as above and sectioned to identify the infarct (i.e. scar) area. The images of unfixed, stained rings were also used to measure internal and external chamber diameters, anterior and septal wall thicknesses.
# Statistical Analysis Comparisons between means±S.E.M were analyzed by student's t-tests or one-way ANOVA followed by Bonferroni post-hoc. P<0.05 was considered statistically significant. The investigator who analyzed the data was blinded to what group (control vs. treatment with epicatechin) the animal belonged to.
# [4] = system: Sprague-Dawley rats; test: Permanent coronary occlusion infarct size (Example 2); settings: epicatechin 1 mg/kg/day oral
# Procedure: Determination of Infarct Size: Terminal study hearts were excised and weighed. In 48 h hearts, the area at risk was determined by the reocclusion of the snare and infusion of trypan blue (0.4%) into the cannulated aorta. […] Computer assisted image analysis was used using blinded operators. For 3 week studies hearts were processed as above and sectioned to identify the infarct (i.e. scar) area. The images of unfixed, stained rings were also used to measure internal and external chamber diameters, anterior and septal wall thicknesses. Adult male Sprague-Dawley rats (Harlan, Indianapolis, Ind.) weighing ˜250 g were used. […] Sigma-Aldrich, St. Louis, Mo.) or vehicle (water) was administered orally by gavage once/day beginning 10 days before thoracotomy and continuing until the time of the terminal study (48 h or 3 weeks). Thoracotomy was performed at day 10. In the sham group, the chest was only opened and closed; no artery was permanently occluded. […] At 48 hours the animals were anesthetized and hemodynamics recorded. The heart was excised and for infarcted animals only the infarct size and heart structure (morphometry) were determined. […] At 3 weeks the animals were anesthetized and hemodynamics recorded. The heart was excised and for infarcted animals only the infarct size and heart structure (morphometry) were determined.
# [5] = system: Sprague-Dawley rats; test: Cardiac morphometry after permanent coronary occlusion (Example 2); settings: epicatechin
# Procedure: Determination of Infarct Size: Terminal study hearts were excised and weighed. In 48 h hearts, the area at risk was determined by the reocclusion of the snare and infusion of trypan blue (0.4%) into the cannulated aorta. […] Computer assisted image analysis was used using blinded operators. For 3 week studies hearts were processed as above and sectioned to identify the infarct (i.e. scar) area. The images of unfixed, stained rings were also used to measure internal and external chamber diameters, anterior and septal wall thicknesses. Adult male Sprague-Dawley rats (Harlan, Indianapolis, Ind.) weighing ˜250 g were used. […] Sigma-Aldrich, St. Louis, Mo.) or vehicle (water) was administered orally by gavage once/day beginning 10 days before thoracotomy and continuing until the time of the terminal study (48 h or 3 weeks). Thoracotomy was performed at day 10. In the sham group, the chest was only opened and closed; no artery was permanently occluded. For the infarct group, the left anterior descending coronary artery was permanently occluded. In the 48 hour treatment arm, the animals were allowed to heal with treatment of epicatechin at 1 mg/kg/day continued for 48 hours. At 48 hours the animals were anesthetized and hemodynamics recorded. The heart was excised and for infarcted animals only the infarct size and heart structure (morphometry) were determined. In the 3 week treatment arm, the animals were allowed to heal for 3 weeks with daily treatment of epicatechin at 1 mg/kg/day. At 3 weeks the animals were anesthetized and hemodynamics recorded. The heart was excised and for infarcted animals only the infarct size and heart structure (morphometry) were determined.
# [6] = system: Sprague-Dawley rats; test: Hemodynamics after permanent coronary occlusion (Example 2); settings: for LVEDP / LVPSP / MAP: epicatechin; for HR: epicatechin 1 mg/kg/day
# Procedure: as §2
# Adult male Sprague-Dawley rats (Harlan, Indianapolis, Ind.) weighing ˜250 g were used. Epicatechin (1 mg/kg/day; Sigma-Aldrich, St. Louis, Mo.) or vehicle (water) was administered orally by gavage once/day beginning 10 days before thoracotomy and continuing until the time of the terminal study (48 h or 3 weeks). Thoracotomy was performed at day 10. In the sham group, the chest was only opened and closed; no artery was permanently occluded. For the infarct group, the left anterior descending coronary artery was permanently occluded. In the 48 hour treatment arm, the animals were allowed to heal with treatment of epicatechin at 1 mg/kg/day continued for 48 hours. At 48 hours the animals were anesthetized and hemodynamics recorded. The heart was excised and for infarcted animals only the infarct size and heart structure (morphometry) were determined. In the 3 week treatment arm, the animals were allowed to heal for 3 weeks with daily treatment of epicatechin at 1 mg/kg/day. At 3 weeks the animals were anesthetized and hemodynamics recorded. The heart was excised and for infarcted animals only the infarct size and heart structure (morphometry) were determined.
# Methods of determining infarct size, hemodynamics, tissue collection statistical analysis is as described in Example 1.
# [7] = system: Sprague Dawley rats; test: IR (30 minutes ischemia) infarct size, single IV therapy 15 min before reperfusion
# Procedure: Lateral thoracotamy with 30 minutes ischemia>reperfusion was performed a treated per the groups above 15 min before reperfusion IV in the femoral artery. Animals were humanely sacrificed and the hearts were then section and stained to examine tissue injury.
# [8] = 48 h IR, 10 d epicatechin pretreatment
compound,measurement,setting,value
Oc1cc(O)c2c(c1)O[C@H](c1ccc(O)c(O)c1)[C@H](O)C2 [epicatechin],AW thickness,[1]; 3 wk IR,0.41 ± 0.02 mm
same,HW/BW (heart weight/body weight),[1]; 3 wk IR,4.5 ± 0.2
same,Inner LV diam.,[1]; 3 wk IR,0.55 ± 0.05 mm
same,Outer LV diam.,[1]; 3 wk IR,1.6 ± 0.04 mm
same,SW thickness,[1]; 3 wk IR,0.49 ± 0.03 mm
same,AW thickness,"[1]; sham, 3 wk study",0.53 ± 0.05 mm
same,HW/BW (heart weight/body weight),"[1]; sham, 3 wk study",3.2 ± 0.5
same,Inner LV diam.,"[1]; sham, 3 wk study",0.52 ± 0.08 mm
same,Outer LV diam.,"[1]; sham, 3 wk study",1.6 ± 0.1 mm
same,SW thickness,"[1]; sham, 3 wk study",0.47 ± 0.04 mm
same,HR (heart rate),"[2]; 3 wk IR, epicatechin",302 ±18^ bpm
same,LVEDP,"[2]; 3 wk IR, epicatechin",5.5 ± 1.5 mmHg
same,LVPSP,"[2]; 3 wk IR, epicatechin",108 ± 4 mmHg
same,MAP,"[2]; 3 wk IR, epicatechin",85 ± 4 mmHg
same,LVEDP (left ventricular end diastolic pressure),[2]; [8],4.9 ± 0.5 mmHg
same,LVPSP (left ventricular peak systolic pressure),[2]; [8],110 ± 5 mmHg
same,MAP (mean aortic pressure),[2]; [8],90 ± 5 mm Hg
same,HR (heart rate),"[2]; 48 h IR, 10 d epicatechin pretreatment, mean ± SEM",373 ± 17 bpm
same,LVEDP (left ventricular end diastolic pressure),"[2]; normal rats, 10 d epicatechin",6.7 ± 1.3 mmHg
same,LVPSP (left ventricular peak systolic pressure),"[2]; normal rats, 10 d epicatechin",112 ± 14 mmHg
same,MAP (mean aortic pressure),"[2]; normal rats, 10 d epicatechin",99 ± 10 mm Hg
same,HR (heart rate),"[2]; normal rats, 10 d epicatechin 1 mg/kg/day oral, mean ± SEM",346 ± 8 bpm
same,HR (heart rate),"[2]; sham, 3 wk study, epicatechin",328 ± 11 bpm
same,LVEDP,"[2]; sham, 3 wk study, epicatechin",2.6 ± 0.2 mmHg
same,LVPSP,"[2]; sham, 3 wk study, epicatechin",116 ± 6.2 mmHg
same,MAP,"[2]; sham, 3 wk study, epicatechin",92 ± 11 mmHg
same,blood pressure,[2]; ten days of treatment in noninfarcted animals,did not reduce blood pressure
same,infarct area,"[3]; 3 weeks after IR, control 50.4±5.6%, p=0.05",33.7±5.5%
same,reduction in scar size,[3]; 3 weeks post-IR,~33%
same,infarct area,"[3]; 48 h after IR, 10 day pre-treatment, control 51.4±1.8%, P<0.0001",26.3±3.4%
same,reduction in infarct size,"[3]; temporary occlusion experiment, FIG. 1, vs vehicle",~50%
same,reduction of infarct size,"[4]; 3 weeks after infarction (permanent occlusion), FIG. 9a",33%
same,reduction of infarct size,"[4]; 48 h after permanent coronary occlusion, FIG. 8",50%
same,AW thickness,[5]; PCO 3 week,0.446 ± 0.04 mm
same,HW/BW,[5]; PCO 3 week,4.4 ± 0.7
same,Inner LV diam.,[5]; PCO 3 week,0.546 ± 0.046 mm
same,Outer LV diam.,[5]; PCO 3 week,1.495 ± 0.031 mm
same,SW thickness,[5]; PCO 3 week,0.475 ± 0.02 mm
same,AW thickness,[5]; PCO 48 h,0.57 ± 0.03 mm
same,SW thickness,[5]; PCO 48 h,0.57 ± 0.02 mm
same,AW thickness,"[5]; sham, 3 weeks",0.58 ± 0.05 mm
same,HW/BW,"[5]; sham, 3 weeks",3.82 ± 0.3
same,Inner LV diam.,"[5]; sham, 3 weeks",0.490 ± 0.046 mm
same,Outer LV diam.,"[5]; sham, 3 weeks",1.469 ± 0.075 mm
same,SW thickness,"[5]; sham, 3 weeks",0.38 ± 0.04 mm
same,AW thickness,"[5]; sham, 48 h",0.54 ± 0.05 mm
same,SW thickness,"[5]; sham, 48 h",0.33 ± 0.06 mm
same,LVEDP,[6]; PCO 3 week,11 ± 1 mmHg
same,LVPSP,[6]; PCO 3 week,102 ± 3 mmHg
same,MAP,[6]; PCO 3 week,82 ± 2 mmHg
same,HR,[6]; PCO 3 week,268 ± 10 bpm
same,LVEDP,[6]; PCO 48 h,5.8 ± 1.2 mmHg
same,LVPSP,[6]; PCO 48 h,107 ± 4 mmHg
same,MAP,[6]; PCO 48 h,91 ± 5 mmHg
same,HR,[6]; PCO 48 h,342 ± 8 bpm
same,HR,"[6]; sham, 3 weeks after thoracotomy",303 ± 10 bpm
same,LVEDP,"[6]; sham, 3 weeks",6.4 ± 0.9 mmHg
same,LVPSP,"[6]; sham, 3 weeks",118 ± 4 mmHg
same,MAP,"[6]; sham, 3 weeks",92 ± 4 mmHg
same,LVEDP,"[6]; sham, 48 h",4.3 ± 1.2 mmHg
same,LVPSP,"[6]; sham, 48 h",102 ± 2 mmHg
same,MAP,"[6]; sham, 48 h",83 ± 2 mmHg
same,HR,"[6]; sham, 48 h after thoracotomy",334 ± 10 bpm
same,reduction of IR induced infarct size,"[7]; at 48 h, IV 10 mg/kg",36%
"C[C@H]1c2cccc(O)c2C(O)=C2C(=O)[C@]3(O)C(O)=C(C(N)=O)C(=O)[C@@H](N(C)C)[C@@H]3[C@@H](O)[C@@H]21 [DOX, doxycycline]",reduction of IR induced infarct size,"[7]; at 4 hours, IV 5 mg/kg",~10%
